Columns and labels:
MV-411 cells = assay: Fibronectin release: detachment of cells from fibronectin-coated plates; format: cell-based; conditions: MV-411 cells on fibronectin-coated plates; 1, 2, or 5 μm for two hours at 37° C.; CellTiter Glo; FIG. 2
Method: Fibronectin is an important component of the microenvironment extracellular matrix and attaches to cells through VLA-4 (integrin α4β1). Detachment of cells from fibronectin after exposure to Compound No. 128 was assessed by plating 1×10^6 MV-411 cells on fibronectin-coated plates (3 replicates). The cells were allowed to adhere overnight at 37° C. and then unadhered cells were washed away. Next, attached cells were treated with DMSO or Compound No. 128 (1, 2, or 5 μm) for two hours at 37° C. Detached cells were then collected and cell numbers determined using CellTiter Glo.

[1] = tested on: CD11a (LFA-1), CD62L (L-selectin), and CD49d (VLA-4); format: in vivo, human; conditions: monocytes from blood of treated COVID-19 patients; FIG. 3
stimulated whole blood = assay: In vitro cytokine production in stimulated whole blood; format: cell-based; conditions: 24 hour incubation, FIG. 4
Method: The impact on in vitro cytokine production after exposure to Compound No. 128 was assessed in stimulated whole blood following a 24 hour incubation.

BTK [2] = molecular target: T1, BTK (Homo sapiens, UniProt Q06187); assay: Inhibition of BTK phosphorylation (activation) in healthy B-cells; format: cell-based; set-up: endogenous in cells; conditions: healthy PBMC incubated two hours with 10 minutes of αIgM and H2O2 stimulation
T1 sequence (Q06187 whole entry): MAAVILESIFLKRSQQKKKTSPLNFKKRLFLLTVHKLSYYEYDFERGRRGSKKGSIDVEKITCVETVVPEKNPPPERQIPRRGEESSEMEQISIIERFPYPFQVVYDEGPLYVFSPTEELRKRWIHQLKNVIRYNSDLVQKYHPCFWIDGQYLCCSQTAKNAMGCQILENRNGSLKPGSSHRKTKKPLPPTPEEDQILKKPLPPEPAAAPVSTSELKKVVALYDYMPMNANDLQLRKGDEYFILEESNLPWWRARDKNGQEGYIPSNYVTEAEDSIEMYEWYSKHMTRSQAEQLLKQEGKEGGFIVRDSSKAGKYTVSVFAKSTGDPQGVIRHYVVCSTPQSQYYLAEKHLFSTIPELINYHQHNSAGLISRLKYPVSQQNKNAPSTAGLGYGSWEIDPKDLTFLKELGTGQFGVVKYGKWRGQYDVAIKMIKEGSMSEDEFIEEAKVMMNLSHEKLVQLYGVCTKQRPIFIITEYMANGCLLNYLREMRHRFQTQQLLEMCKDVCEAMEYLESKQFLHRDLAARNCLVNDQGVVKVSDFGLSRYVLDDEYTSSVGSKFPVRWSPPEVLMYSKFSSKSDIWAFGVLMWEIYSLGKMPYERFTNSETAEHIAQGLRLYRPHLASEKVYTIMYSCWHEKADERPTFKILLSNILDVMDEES
Method: (§1) Inhibition of BTK phosphorylation (activation) by Compound No. 128 (1-(4-(((6-amino-5-(4-phenoxyphenyl)pyrimidin-4-yl)amino)methyl)-4-fluoropiperidin-1-yl)prop-2-en-1-one) was assessed in healthy B-cells and in myeloid cell lines MOLM-13 basal and Hel-92 basal. Compound No. 128 was incubated with the myeloid cells lines for two hours with no stimulation and with healthy PBMC5 for two hours with 10 minutes of αIgM and H2O2 stimulation.

BTK [3] = molecular target: T1, BTK; assay: Inhibition of BTK phosphorylation (activation) in myeloid cell line MOLM-13 basal; format: cell-based; set-up: endogenous in cells; host or cells: MOLM-13; conditions: incubated two hours with no stimulation
Method: as §1

BTK [4] = molecular target: T1, BTK; assay: Inhibition of BTK phosphorylation (activation) in myeloid cell line Hel-92 basal; format: cell-based; set-up: endogenous in cells; host or cells: MOLM-13; conditions: incubated two hours with no stimulation
Method: as §1

Hel-92 (V617F mut) cells = assay: In vitro inhibition of cell migration towards SDF-1 (CXCL12) through a permeable membrane; conditions: FIG. 1A and 1B

Compound: C=CC(=O)N1CCC(F)(CNc2ncnc(N)c2-c2ccc(Oc3ccccc3)cc2)CC1 [Compound No. 128, 1-(4-(((6-amino-5-(4-phenoxyphenyl)pyrimidin-4-yl)amino)methyl)-4-fluoropiperidin-1-yl)prop-2-en-1-one]
- detachment of cells from fibronectin (MV-411 cells): cells detached from fibronectin
- levels of surface molecules CD11a (LFA-1), CD62L (L-selectin), CD49d (VLA-4) [1]: reduced levels of surface molecules in some patients
- cytokine and chemokine production (stimulated whole blood): decreased cytokine and chemokine production upon cellular stimulation
- EC50 (BTK [2]): 16.9 nM
- EC50 (BTK [3]): 21.4 nM
- EC50 (BTK [4]): 19.7 nM
- inhibition of cell migration towards SDF-1 (Hel-92 (V617F mut) cells): inhibit cell migration towards SDF-1

Source: patent US11642343B2, “Methods of treating splenomegaly” (Telios Pharma, Inc., priority 2020, dated 2023)
